# From patent US20230191357A1, “SYSTEM AND METHOD FOR ENHANCING THE REACTION POTENTIAL OF PRODUCTS GENERATED FROM IONIZATION, PHOTON-ENHANCED THERMIONIC EMISSION, MULTI PHOTON ABSORPTION, PHOTOOXIDATION, PHOTOCATALYTIC, AND PHOTOCHEMICAL REACTIONS WITH OXIDIZING AGENTS” (Bis Science LLC, priority 2021, published 2023)
# “And” between values parts separate entries of the source, which are not always exact repeats. Equal values may be shown once.
# How the values were obtained:
# Format in all cases: cell-based
# [1] = tested on: viable cells (microbial counts); experiment: Independent lab testing of the HVAC antimicrobial system utilizing Photon Augmented Oxidizing Agents (coupons, ambient air); details: 1 part per million, 5 minute contact time with the ambient air
# Text: All test samples were compared against the Control provided. (Independent lab testing of the HVAC antimicrobial system utilizing Photon Augmented Oxidizing Agents).
# E. coli ATCC 11229 = experiment: Carrier test of residual antimicrobial effect, 4 weeks post photon exposure; details: contact time 10 Minutes, 4 weeks post exposure to radiation
# [2] = tested on: Staphylococcus aureus ATCC 6538; experiment: Hydrogen peroxide exposed or not exposed to photons applied to inoculated target microbes; details: contact time 5 Minutes; for CFU/ml: single replicates
# Procedure: The test substances were hydrogen peroxide at 1 ppm and at 0.3%, which were exposed or not exposed to photons of 0.01 nm through 845 nm and applied to target of microbes, which included a carrier for the inoculated target microbes such as agar with a viable bacteria concentration of Staphylococcus aureus ATCC 6538. The control for this test was a similar inoculated plate and it was treated in the same manor but there was no application of photons to the oxidizing agent.
Structure (SMILES),microbial reduction [1],Average Log10 Reduction Compared to Controls (E. coli ATCC 11229),Average Percent Reduction Compared to Controls (E. coli ATCC 11229),CFU/Carrier (E. coli ATCC 11229),Average Percent Reduction Compared to Controls (E. coli ATCC 11229; listed as control substance),Average CFU/ml [2],Average Log10 Reduction Compared to Controls [2],Average Percent Reduction Compared to Controls [2],CFU/ml [2]
"OO [standard hydrogen peroxide, hydrogen peroxide]",little or no microbial reduction,–,–,–,–,–,–,–,–
"OO [Control Substance, hydrogen peroxide]",–,0.11 Log10,23.08%,3.00E+04 CFU/Carrier,23.08%,–,–,–,–
"OO [0.3% No photon emission, hydrogen peroxide]",–,–,–,–,–,4.05E+06 CFU/ml,No Reduction,No Reduction,4.10E+06 CFU/ml and 4.00E+06 CFU/ml
"OO [1 PPM No photon emission, hydrogen peroxide]",–,–,–,–,–,4.05E+06 CFU/ml,No Reduction,No Reduction,4.10E+06 CFU/ml
